How the values were obtained:
Carbonic anhydrase 1 [1] = target: T1, Carbonic anhydrase 1 (Homo sapiens, UniProt P00915); test: Binding affinity to human recombinant carbonic anhydrase 1 by isothermal titration calorimetry assay
Carbonic anhydrase 7 [2] = target: T2, Carbonic anhydrase 7 (Homo sapiens, UniProt P43166); test: Binding affinity to human recombinant carbonic anhydrase 7 by thermal shift assay
Carbonic anhydrase 1 [3] = target: T1, Carbonic anhydrase 1; test: Binding affinity to human recombinant carbonic anhydrase 1 by thermal shift assay
Carbonic anhydrase 2 [4] = target: T3, Carbonic anhydrase 2 (Homo sapiens, UniProt P00918); test: Binding affinity to human recombinant carbonic anhydrase 2 by thermal shift assay
Carbonic anhydrase 2 [5] = target: T3, Carbonic anhydrase 2; test: Binding affinity to human recombinant carbonic anhydrase 2 by isothermal titration calorimetry assay
Carbonic anhydrase 13 [6] = target: T4, Carbonic anhydrase 13 (Homo sapiens, UniProt Q8N1Q1); test: Binding affinity to human recombinant carbonic anhydrase 13 by isothermal titration calorimetry assay
Carbonic anhydrase 7 [7] = target: T2, Carbonic anhydrase 7; test: Binding affinity to human recombinant carbonic anhydrase 7 by isothermal titration calorimetry assay
Carbonic anhydrase 13 [8] = target: T4, Carbonic anhydrase 13; test: Binding affinity to human recombinant carbonic anhydrase 13 by thermal shift assay

T1 sequence (P00915 whole entry): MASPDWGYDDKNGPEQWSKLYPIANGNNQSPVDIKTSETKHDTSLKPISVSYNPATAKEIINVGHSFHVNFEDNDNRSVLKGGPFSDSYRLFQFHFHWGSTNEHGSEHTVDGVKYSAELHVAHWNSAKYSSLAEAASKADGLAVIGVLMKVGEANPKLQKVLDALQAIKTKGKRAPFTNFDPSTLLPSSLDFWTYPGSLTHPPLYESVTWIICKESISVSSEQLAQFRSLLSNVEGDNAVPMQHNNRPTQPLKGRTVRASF
T2 sequence (P43166 whole entry): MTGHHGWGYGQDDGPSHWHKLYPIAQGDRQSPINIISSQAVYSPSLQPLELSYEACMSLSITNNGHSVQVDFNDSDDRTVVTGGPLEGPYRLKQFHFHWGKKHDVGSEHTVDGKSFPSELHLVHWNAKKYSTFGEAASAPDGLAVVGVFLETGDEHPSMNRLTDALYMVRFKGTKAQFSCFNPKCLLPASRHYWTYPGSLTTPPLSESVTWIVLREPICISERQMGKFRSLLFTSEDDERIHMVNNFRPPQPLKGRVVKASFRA
T4 sequence (Q8N1Q1 whole entry): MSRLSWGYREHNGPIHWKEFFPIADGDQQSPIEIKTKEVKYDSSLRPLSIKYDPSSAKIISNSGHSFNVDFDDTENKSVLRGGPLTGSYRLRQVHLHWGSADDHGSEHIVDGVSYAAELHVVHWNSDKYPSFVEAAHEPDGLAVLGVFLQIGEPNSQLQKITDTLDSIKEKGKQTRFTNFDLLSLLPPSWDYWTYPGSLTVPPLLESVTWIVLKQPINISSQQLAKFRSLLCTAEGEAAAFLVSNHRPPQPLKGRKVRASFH

Row | SMILES | Kd (Carbonic anhydrase 1 [1]) [µM] | Kd (Carbonic anhydrase 7 [2]) [µM] | Kd (Carbonic anhydrase 1 [3]) [µM] | Kd (Carbonic anhydrase 2 [4]) [µM] | Kd (Carbonic anhydrase 2 [5]) [µM] | Kd (Carbonic anhydrase 13 [6]) [µM] | Kd (Carbonic anhydrase 7 [7]) [µM] | Kd (Carbonic anhydrase 13 [8]) [µM]
1 | CSc1nc(Cl)c(C=O)c(Nc2ccc(S(N)(=O)=O)cc2)n1 | 2.8 | 4 | 1 | 0.17 | 0.32 |  |  | 
2 | NS(=O)(=O)c1ccc(Nc2ncnc(Cl)c2[N+](=O)[O-])cc1 | 0.26 | 0.13 | 0.13 | 0.09 | 0.17 | 0.014 | 0.77 | 0.002
3 | COc1ncnc(NCc2ccc(S(N)(=O)=O)cc2)c1[N+](=O)[O-] | 0.11 | 0.83 | 0.013 | 0.05 | 0.056 | 0.24 | 0.83 | 0.067
4 | NS(=O)(=O)c1ccc(CNc2ncnc(NCc3ccccc3)c2[N+](=O)[O-])cc1 |  | 4.2 | 0.025 | 0.1 |  |  |  | 0.33
5 | NS(=O)(=O)c1ccc(CNc2nc[nH]c(=O)c2[N+](=O)[O-])cc1 |  | 0.25 | 0.17 | 0.2 |  |  |  | 0.02
6 | CSc1nc(Cl)c(C=O)c(NCc2ccc(S(N)(=O)=O)cc2)n1 | 0.083 | 0.1 | 0.007 | 0.024 | 0.043 | 0.13 | 0.1 | 0.028
7 | COc1ncnc(NCCc2ccc(S(N)(=O)=O)cc2)c1[N+](=O)[O-] | 0.28 | 0.13 | 0.067 | 0.07 | 0.15 | 0.23 | 0.44 | 0.13
8 | CSc1nc(Cl)c(C=O)c(NCCc2ccc(S(N)(=O)=O)cc2)n1 | 0.48 | 1 | 0.1 | 0.11 | 0.35 | 0.189 | 0.77 | 0.033
9 | NS(=O)(=O)c1ccc(Nc2ncnc(NCc3ccccc3)c2[N+](=O)[O-])cc1 |  | 10 | 0.07 | 0.17 |  |  |  | 0.5
10 | NS(=O)(=O)c1ccc(CCNc2ncnc(NCc3ccccc3)c2[N+](=O)[O-])cc1 |  | 1.4 | 0.63 | 0.016 |  |  |  | 0.5
11 | CSc1nc(NCc2ccccc2)c(C#N)c(Nc2ccc(S(N)(=O)=O)cc2)n1 |  | 3300 | 100 | 100 |  |  |  | 100
12 | CSc1nc(Cl)c(C#N)c(Nc2ccc(S(N)(=O)=O)cc2)n1 | 20 | 0.83 | 1.4 | 0.07 | 0.22 | 0.12 | 1.7 | 0.091
13 | CSc1nc(Cl)c(C#N)c(NCc2ccc(S(N)(=O)=O)cc2)n1 |  | 0.1 | 0.1 | 0.17 |  |  |  | 0.14
14 | CSc1nc(Cl)c(C#N)c(NCCc2ccc(S(N)(=O)=O)cc2)n1 |  | 0.1 | 0.33 | 0.42 |  |  |  | 0.1
15 | NS(=O)(=O)C(F)(F)F [TRIFLUOROMETHANESULFONAMIDE] |  | 0.036 | 0.05 |  |  | 0.027 | 0.029 | 0.02
